Patent US11827724B2, “Polytetrafluoroethylene and method for producing same” (DAIKIN INDUSTRIES, LTD., priority 2009, dated 2023)
Where two headings read alike, the source gives them in different places.

Legend:
[1] = PFOA, stated in description as comparison; cited from earlier work
[2] = Log POW, distribution coefficient between 1-octanol and water; conditions: fluorinated surfactants used in Examples; octanol/water (1:1)
Excerpt: The Log POW is distribution coefficient between 1-octanol and water. The Log POW is represented by Log P, wherein P is the ratio of a concentration of a fluorinated surfactant in an octanol phase to a concentration of a fluorinated surfactant in a water phase when an octanol/water (1:1) mixture containing a fluorinated surfactant is phase-separated.

Row | SMILES | Log POW [1] | Log POW [2]
1 | N.O=C(O)C(F)(F)C(F)(F)C(F)(F)C(F)(F)C(F)(F)C(F)(F)C(F)(F)F [PFOA, perfluoro octanoic acid ammonium] | 3.5 | 
2 | N.O=C(O)C(F)(OC(F)(F)C(F)(OC(F)(F)F)C(F)(F)F)C(F)(F)F (centres unmarked) [CF3—O—CF(CF3)CF2O—CF(CF3) COONH4] |  | 3.4
